For 3 compounds, half-life and IC50 results are on record in patent US10703756B2, “Pyrrolo[2,3-D]pyrimidinyl, pyrrolo[2,3-B]pyrazinyl, pyrrolo[2,3-B]pyridinyl acrylamides and epoxides thereof” (Pfizer Inc., priority 2015, dated 2020).

A short description of data set [1]: Stability of JAK3 Covalent Inhibitors in Human Whole Blood. Type of data set: in vitro ADME. The settings on record: both sexes, 1 μM test compound, 37° C., 180 min incubation, read-out: Human blood stability t1/2. In a few lines:
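Compound at 1 μM final incubated in duplicate at 37° C for 180 min in fresh K2-EDTA whole blood […]. Samples quenched in acetonitrile with internal standard; LC-MS/MS peak area ratios gave % parent remaining over time.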

The test system of data set [2] is IL-15 induced P-STAT5 in human PBMC. In words: PBMC IL-15 Induced P-STAT5. It counts as cell-based. The settings on record: human PBMC, IL-15 final 41 ng/mL; read-out: PBMC IL15_pSTAT5_IC50. The method in brief: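 Thawed human PBMC, rested in human plasma, were preincubated 15 min at 37 °C with compound (0.2% DMSO), then stimulated 15 min with IL-15 at 41 ng/mL final. After paraformaldehyde fixation and methanol permeabilisation, Alexa Fluor 647 anti-STAT5 staining overnight at 4 °C was analysed by flow cytometry on total lymphocytes.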

Data set [3] has as its system IL-15 induced STAT5 phosphorylation in human whole blood lymphocytes. In words: HWB IL-15 Induced STAT5 Phosphorylation Assay. Type of data set: cell-based. The settings on record: Lymphocyte, IL-15 final 50 ng/ml, read-out: HWB_IL15 pSTAT5 IC50. In a few lines:
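Heparinised human whole blood preincubated with compound (0.2% DMSO final) 45 min at 37° C, then stimulated with human IL-15 (50 ng/ml final) for 15 min. After lyse/fix and Perm Buffer III permeabilisation, stained overnight at 4° C with AlexaFluor647 anti-phospho-STAT5; read by flow cytometry gated on total lymphocytes.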

As to `C=CC(=O)N1CCN(c2cnc3[nH]cc(C(=O)N[C@H]4CCO[C@H]4C)c3n2)CC1(C)C` [Example 166, 3-({[2-(4-acryloyl-3,3-dimethylpiperazin-1-yl)-5H-pyrrolo[2,3-b]pyrazin-7-yl]carbonyl}amino)-2,5-anhydro-1,3,4-trideoxy-L-threo-pentitol], the half-life at 1 μM in data set [1] was above 6 h. In addition, the IC50 in data set [2] came out at 0.168 µM; in data set [3] it was 1.21 µM.

As to `C=CC(=O)N1CC(CF)CC(Nc2ncnc3[nH]ccc23)C1` (mixture of isomers) [Example 102, Cis-racemic-1-[3-(fluoromethyl-5-(7H-pyrrolo[2,3-d]pyrimidin-4-ylamino)piperidin-1-yl]prop-2-en-1-one], the half-life at 1 μM in data set [1] worked out at 2.02 h. Moreover, the values for the IC50 in data set [2] and in data set [3] were 0.237 µM and 1.53 µM, respectively.

For the compound `C=CC(=O)N1CC[C@@H](Nc2cnc3[nH]cc(C(=O)N[C@H](C)COC)c3n2)[C@@H](OC)C1` [Example 331, 2-{[(3S,4R)-1-acryloyl-3-methoxypiperidin-4-yl]amino}-N-[(2R)-1-methoxypropan-2-yl]-5H-pyrrolo[2,3-b]pyrazine-7-carboxamide], in data set [1], the half-life at 1 μM worked out at 5.52 h. The IC50 in data set [2] came to 0.288 µM; in data set [3], 0.263 µM.
